Results as given in patent US11091478B2 (Fochon Pharmaceuticals, Ltd., priority 2017, dated 2021).
Where two headings read alike, the source gives them in different places.

Experiments:
[1] = tested on: RS4;11 cells; experiment: Cell proliferation assay (MTS), RS4;11 cells, 72 h; type: cell-based
How it was run: (§1)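 Cells in RPMI-1640 with 10% FBS were seeded at 5000/well, left overnight at 37° C., 5% CO2, then exposed to compound at 10000 down to 1.5 nM (nine concentrations) for 72 h (RS4;11) or 120 h (DOHH2). Viability was read by MTS, 2 h, absorbance at 490/650 nm; IC50 calculated.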

[2] = tested on: DOHH2 cells; experiment: Cell proliferation assay (MTS), DOHH2 cells, 120 h; type: cell-based
How it was run: as §1

SMILES: C[C@H]1CN(C[C@H]2COc3cc(S(=O)(=O)NC(=O)c4ccc(N5CCN(CC6=C(c7ccc(Cl)cc7)CC(C)(C)CC6)CC5)cc4Oc4cnc5[nH]ccc5c4)cc([N+](=O)[O-])c3N2)CCN1C1COC1 [Example 2-30]
- IC50 ([1]; Homo sapiens, RS4-11, 72 h): 1 nM
- IC50 ([2]; Homo sapiens, DOHH-2, 120 h): 8 nM

SMILES: C[C@H]1CN(C[C@H]2COc3cc(S(=O)(=O)NC(=O)c4ccc(N5CCN(CC6=C(c7ccc(Cl)cc7)CC(C)(C)CC6)CC5)cc4Oc4cnc5[nH]ccc5c4)cc([N+](=O)[O-])c3N2)CCO1 [Example 2-31, 2-((1H-pyrrolo[2,3-b]pyridin-5-yl)oxy)-4-(4-((4′-chloro-5,5-dimethyl-3,4,5,6-tetrahydro-[1,1′-biphenyl]-2-yl)methyl)piperazin-1-yl)-N-(((S)-3-(((S)-2-methylmorpholino)meth-yl)-5-nitro-3,4-dihydro-2H-benzo[b][1,4]oxazin-7-yl)sulfonyl)benzamide]
- IC50 ([1]; Homo sapiens, RS4-11, 72 h): 7 nM
- IC50 ([2]; Homo sapiens, DOHH-2, 120 h): 18 nM

SMILES: C[C@@H]1CN(C[C@H]2COc3cc(S(=O)(=O)NC(=O)c4ccc(N5CCN(CC6=C(c7ccc(Cl)cc7)CC(C)(C)CC6)CC5)cc4Oc4cnc5[nH]ccc5c4)cc([N+](=O)[O-])c3N2)CCO1 [Example 2-32, 2-((1H-pyrrolo[2,3-b]pyridin-5-yl)oxy)-4-(4-((4′-chloro-5,5-dimethyl-3,4,5,6-tetrahydro-[1,1′-biphenyl]-2-yl)methyl)piperazin-1-yl)-N-(((S)-3-(((R)-2-methylmorpholino)meth-yl)-5-nitro-3,4-dihydro-2H-benzo[b][1,4]oxazin-7-yl)sulfonyl)benzamide]
- IC50 ([1]; Homo sapiens, RS4-11, 72 h): 18 nM
- IC50 ([2]; Homo sapiens, DOHH-2, 120 h): 34 nM

SMILES: CC1(C)CCC(CN2CCN(c3ccc(C(=O)NS(=O)(=O)c4cc5c(c([N+](=O)[O-])c4)N[C@H](CCN=S(C)(C)=O)CO5)c(Oc4cnc5[nH]ccc5c4)c3)CC2)=C(c2ccc(Cl)cc2)C1 [Example 2-33, (R)-2-((1H-pyrrolo[2,3-b]pyridin-5-yl)oxy)-4-(4-((4′-chloro-5,5-dimethyl-3,4,5,6-tetra-hydro-[1,1′-biphenyl]-2-yl)methyl)piperazin-1-yl)-N-((3-(2-((dimethyl(oxo)-l6-sulfanyl-idene)amino)ethyl)-5-nitro-3,4-dihydro-2H-benzo[b][1,4]oxazin-7-yl)sulfonyl)benza-mide]
- IC50 ([1]; Homo sapiens, RS4-11, 72 h): 11 nM
- IC50 ([2]; Homo sapiens, DOHH-2, 120 h): 25 nM

SMILES: CC1(C)CCC(CN2CCN(c3ccc(C(=O)NS(=O)(=O)c4cc5c(c([N+](=O)[O-])c4)N[C@H](CCN4CC(O)C4)CO5)c(Oc4cnc5[nH]ccc5c4)c3)CC2)=C(c2ccc(Cl)cc2)C1 [Example 2-34, (R)-2-((1H-pyrrolo[2,3-b]pyridin-5-yl)oxy)-4-(4-((4′-chloro-5,5-dimethyl-3,4,5,6-tetra-hydro-[1,1′-biphenyl]-2-yl)methyl)piperazin-1-yl)-N-((3-(2-(3-hydroxyazetidin-1-yl)eth-yl)-5-nitro-3,4-dihydro-2H-benzo[b][1,4]oxazin-7-yl)sulfonyl)benzamide]
- IC50 ([1]; Homo sapiens, RS4-11, 72 h): 14 nM
- IC50 ([2]; Homo sapiens, DOHH-2, 120 h): 41 nM

SMILES: CC1(C)CCC(CN2CCN(c3ccc(C(=O)NS(=O)(=O)c4cc5c(c([N+](=O)[O-])c4)N[C@H](CCN4CC(C)(O)C4)CO5)c(Oc4cnc5[nH]ccc5c4)c3)CC2)=C(c2ccc(Cl)cc2)C1 [Example 2-35, (R)-2-((1H-pyrrolo[2,3-b]pyridin-5-yl)oxy)-4-(4-((4′-chloro-5,5-dimethyl-3,4,5,6-tetra-hydro-[1,1′-biphenyl]-2-yl)methyl)piperazin-1-yl)-N-((3-(2-(3-hydroxy-3-methylazetidin-1-yl)ethyl)-5-nitro-3,4-dihydro-2H-ben-zo[b][1,4]oxazin-7-yl)sulfonyl)benzamide]
- IC50 ([1]; Homo sapiens, RS4-11, 72 h): 5 nM
- IC50 ([2]; Homo sapiens, DOHH-2, 120 h): 30 nM

SMILES: C[C@@H]1CN(CC[C@@H]2COc3cc(S(=O)(=O)NC(=O)c4ccc(N5CCN(CC6=C(c7ccc(Cl)cc7)CC(C)(C)CC6)CC5)cc4Oc4cnc5[nH]ccc5c4)cc([N+](=O)[O-])c3N2)CCN1C [Example 2-36, 2-((1H-pyrrolo[2,3-b]pyridin-5-yl)oxy)-4-(4-((4′-chloro-5,5-dimethyl-3,4,5,6-tetrahydro-[1,1′-biphenyl]-2-yl)methyl)piperazin-1-yl)-N-(((R)-3-(2-((R)-3,4-dimethylpiperazin-1-yl)ethyl)-5-nitro-3,4-dihydro-2H-benzo [b][1,4]oxazin-7-yl)sulfonyl)benzamide]
- IC50 ([1]; Homo sapiens, RS4-11, 72 h): 7 nM
- IC50 ([2]; Homo sapiens, DOHH-2, 120 h): 33 nM

SMILES: C[C@H]1CN(CC[C@@H]2COc3cc(S(=O)(=O)NC(=O)c4ccc(N5CCN(CC6=C(c7ccc(Cl)cc7)CC(C)(C)CC6)CC5)cc4Oc4cnc5[nH]ccc5c4)cc([N+](=O)[O-])c3N2)CCN1C [Example 2-37, 2-((1H-pyrrolo[2,3-b]pyridin-5-yl)oxy)-4-(4-((4′-chloro-5,5-dimethyl-3,4,5,6-tetrahydro-[1,1′-biphenyl]-2-yl)methyl)piperazin-1-yl)-N-(((R)-3-(2-((S)-3,4-dimethylpiperazin-1-yl)ethyl)-5-nitro-3,4-dihydro-2H-benzo [b][1,4]oxazin-7-yl)sulfonyl)benzamide]
- IC50 ([1]; Homo sapiens, RS4-11, 72 h): 1 nM
- IC50 ([2]; Homo sapiens, DOHH-2, 120 h): 25 nM

SMILES: CC1(C)CCC(CN2CCN(c3ccc(C(=O)NS(=O)(=O)c4cc5c(c([N+](=O)[O-])c4)N[C@H](CCN4CCN(C6COC6)CC4)CO5)c(Oc4cnc5[nH]ccc5c4)c3)CC2)=C(c2ccc(Cl)cc2)C1 [Example 2-38, (R)-2-((1H-pyrrolo[2,3-b]pyridin-5-yl)oxy)-4-(4-((4′-chloro-5,5-dimethyl-3,4,5,6-tetra-hydro-[1,1′-biphenyl]-2-yl)methyl)piperazin-1-yl)-N-((5-nitro-3-(2-(4-(oxetan-3-yl)piperazin-1-yl)ethyl)-3,4-dihydro-2H-benzo [b][1,4]oxazin-7-yl)sulfonyl)benzamide]
- IC50 ([1]; Homo sapiens, RS4-11, 72 h): 1 nM
- IC50 ([2]; Homo sapiens, DOHH-2, 120 h): 27 nM

SMILES: C[C@@H]1CN(CC[C@@H]2COc3cc(S(=O)(=O)NC(=O)c4ccc(N5CCN(CC6=C(c7ccc(Cl)cc7)CC(C)(C)CC6)CC5)cc4Oc4cnc5[nH]ccc5c4)cc([N+](=O)[O-])c3N2)CCN1C1COC1 [Example 2-39, 2-((1H-pyrrolo[2,3-b]pyridin-5-yl)oxy)-4-(4-((4′-chloro-5,5-dimethyl-3,4,5,6-tetrahydro-[1,1′-biphenyl]-2-yl)methyl)piperazin-1-yl)-N-(((R)-3-(2-((R)-3-methyl-4-(oxetan-3-yl)piperazin-1-yl)ethyl)-5-nitro-3,4-dihydro-2H-benzo[b][1,4]oxazin-7-yl)sulfonyl) benzamide]
- IC50 ([1]; Homo sapiens, RS4-11, 72 h): 9 nM
- IC50 ([2]; Homo sapiens, DOHH-2, 120 h): 33 nM

SMILES: C[C@H]1CN(CC[C@@H]2COc3cc(S(=O)(=O)NC(=O)c4ccc(N5CCN(CC6=C(c7ccc(Cl)cc7)CC(C)(C)CC6)CC5)cc4Oc4cnc5[nH]ccc5c4)cc([N+](=O)[O-])c3N2)CCN1C1COC1 [Example 2-40]
- IC50 ([1]; Homo sapiens, RS4-11, 72 h): 22 nM
- IC50 ([2]; Homo sapiens, DOHH-2, 120 h): 36 nM

SMILES: C[C@H]1CN(CC[C@@H]2COc3cc(S(=O)(=O)NC(=O)c4ccc(N5CCN(CC6=C(c7ccc(Cl)cc7)CC(C)(C)CC6)CC5)cc4Oc4cnc5[nH]ccc5c4)cc([N+](=O)[O-])c3N2)CCO1 [Example 2-41, 2-((1H-pyrrolo[2,3-b]pyridin-5-yl)oxy)-4-(4-((4′-chloro-5,5-dimethyl-3,4,5,6-tetrahydro-[1,1′-biphenyl]-2-yl)methyl)piperazin-1-yl)-N-(((R)-3-(2-((S)-2-methylmorpholino)ethyl)-5-nitro-3,4-dihydro-2H-benzo[b][1,4]oxazin-7-yl)sulfonyl)benzamide]
- IC50 ([1]; Homo sapiens, RS4-11, 72 h): 2 nM
- IC50 ([2]; Homo sapiens, DOHH-2, 120 h): 23 nM

SMILES: C[C@@H]1CN(CC[C@@H]2COc3cc(S(=O)(=O)NC(=O)c4ccc(N5CCN(CC6=C(c7ccc(Cl)cc7)CC(C)(C)CC6)CC5)cc4Oc4cnc5[nH]ccc5c4)cc([N+](=O)[O-])c3N2)CCO1 [Example 2-42, 2-((1H-pyrrolo[2,3-b]pyridin-5-yl)oxy)-4-(4-((4′-chloro-5,5-dimethyl-3,4,5,6-tetrahydro-[1,1′-biphenyl]-2-yl)methyl)piperazin-1-yl)-N-(((R)-3-(2-((R)-2-methylmorpholino)ethyl)-5-nitro-3,4-dihydro-2H-benzo[b][1,4]oxa-zin-7-yl)sulfonyl)benzamide]
- IC50 ([1]; Homo sapiens, RS4-11, 72 h): 6 nM
- IC50 ([2]; Homo sapiens, DOHH-2, 120 h): 38 nM

SMILES: CC1(C)CCC(CN2CCN(c3ccc(C(=O)NS(=O)(=O)c4cc5c(c([N+](=O)[O-])c4)N[C@@H](CCN=S(C)(C)=O)CO5)c(Oc4cnc5[nH]ccc5c4)c3)CC2)=C(c2ccc(Cl)cc2)C1 [Example 2-43, (S)-2-((1H-pyrrolo[2,3-b]pyridin-5-yl)oxy)-4-(4-((4′-chloro-5,5-dimethyl-3,4,5,6-tetra-hydro-[1,1′-biphenyl]-2-yl)methyl)piperazin-1-yl)-N-((3-(2-((dimethyl(oxo)-l6-sulfanyl-idene)amino)ethyl)-5-nitro-3,4-dihydro-2H-benzo[b][1,4]oxazin-7-yl)sulfonyl)benza-mide]
- IC50 [1]: 1 nM
- IC50 [2]: 10 nM

SMILES: CC1(C)CCC(CN2CCN(c3ccc(C(=O)NS(=O)(=O)c4cc5c(c([N+](=O)[O-])c4)N[C@@H](CCN4CC(O)C4)CO5)c(Oc4cnc5[nH]ccc5c4)c3)CC2)=C(c2ccc(Cl)cc2)C1 [Example 2-44, (S)-2-((1H-pyrrolo[2,3-b]pyridin-5-yl)oxy)-4-(4-((4′-chloro-5,5-dimethyl-3,4,5,6-tetra-hydro-[1,1′-biphenyl]-2-yl)methyl)piperazin-1-yl)-N-((3-(2-(3-hydroxyazetidin-1-yl)eth-yl)-5-nitro-3,4-dihydro-2H-benzo[b][1,4]oxazin-7-yl)sulfonyl)benzamide]
- IC50 ([1]; Homo sapiens, RS4-11, 72 h): 46 nM
- IC50 ([2]; Homo sapiens, DOHH-2, 120 h): 51 nM

SMILES: CC1(C)CCC(CN2CCN(c3ccc(C(=O)NS(=O)(=O)c4cc5c(c([N+](=O)[O-])c4)N[C@@H](CCN4CC(C)(O)C4)CO5)c(Oc4cnc5[nH]ccc5c4)c3)CC2)=C(c2ccc(Cl)cc2)C1 [Example 2-45, (S)-2-((1H-pyrrolo[2,3-b]pyridin-5-yl)oxy)-4-(4-((4′-chloro-5,5-dimethyl-3,4,5,6-tetra-hydro-[1,1′-biphenyl]-2-yl)methyl)piperazin-1-yl)-N-((3-(2-(3-hydroxy-3-methylazeti-din-1-yl)ethyl)-5-nitro-3,4-dihydro-2H-ben-zo[b][1,4]oxazin-7-yl)sulfonyl)benzamide]
- IC50 ([1]; Homo sapiens, RS4-11, 72 h): 12 nM
- IC50 ([2]; Homo sapiens, DOHH-2, 120 h): 17 nM
